{"source": "patent US20250170239A1", "about": "“CELLULAR REPROGRAMMING BY TARGETING THE GOLGI APPARATUS” (MUSC Foundation for Research Development, priority 2023, published 2025)", "key": {"Prdx4 knockdown T cells": {"tested_on": "Prdx4 knockdown T cells", "experiment": "Prdx4 siRNA knockdown Pmel T cells under Golgi/oxidative stress", "format": "cell-based, mouse", "description": "(FIG. 22A) Pmel T cells were activated for 3 days before treatment with vehicle or 50 mM H2O2 for 6 hrs. Prdx4-Golgi colocalization was assessed by PLA using mouse anti-Giantin and rabbit anti-Prdx4 antibodies. (FIG. 22B) Activated Pmel T cells treated with vehicle or 50 mM H2O2 for 6 hrs or 24 hrs with Monensin (1 mM). PLA assay was performed using anti-Giantin and anti-Prdx4 antibodies. (FIG. 22C) Experimental design using Prdx4-targeted siRNA to silence expression of Prdx4 in Pmel T cells. (FIG. 22D) GM130 expression assessed under control versus Monensin (1 μM) conditions in T cells treated with control-siRNA or Prdx4-siRNA. (FIG. 22E) GM130 expression assessed under control versus 50 mM H2O2 conditions in T cells treated with control-siRNA or Prdx4-siRNA+/−0.5 mM GYY4137. (FIG. 22F) Protein translation assessed in Pmel T cells activated+/−GYY4137 and treated with control-siRNA or Prdx4-siRNA. (FIG. 22G) GM130 expression in Pmel T cells treated with vehicle, GYY4137, or Catalase (10 μg/mL). (FIGS. 22H and 22I) Site directed mutagenesis performed to mutate cysteine-54 of the Prdx4 gene. Prdx4-targeted shRNA was used to knock down expression of Prdx4 in Jurkat T cells, followed by transfection with plasmid containing wildtype or mutated Prdx4. (FIG. 22I) GM130 expression assessed after treatment with 50 mM H2O2+/−GYY4137. (FIG. 22J) B16-F10 tumors were injected s.c. into flanks of Pmel mice and grown to ˜100 mm2. TILs and T cells from tumor-draining lymph nodes were isolated via Ficoll spin followed by magnetic bead positive selection. FACS analysis of Prdx4 expression in TILs gated on PD1loLag3lo vs PD1hiLag3hi. (FIG. 22K) Lentiviral supernatant was generated using GFP-tagged control plasmid or GFP-tagged Prdx4-overexpression plasmid. Pmel T cells were transduced with control or Prdx4 lentivirus. Pmel T cells overexpressing Prdx4 and control T cells were treated with H2O2 (50 mM) followed by staining with anti-GM130.\nGiven the delicate redox balance necessary for the native disulfide bonds, it was postulated that a localized mechanism for the detection and elimination of ROS produced during the oxidative folding process may require Prdx4. Thus, it was hypothesized that ER and Golgi network stress mitigated by H2S is mediated through the Prdx4 localization and activity in these organelles. First, it was established if Prdx4 also localizes within the Golgi apparatus in T cells using a proximity ligation assay (PLA), a tool that allows in situ detection of endogenous proteins with high specificity and sensitivity, with antibodies directed against Giantin (a conserved Golgi membrane protein) and Prdx4. […] Next, using siRNA targeting Prdx4, expression of Prdx4 in CD8+ Pmel T cells was knocked down (FIG. 22C, FIGS. 23A and 23B). The cells were then subjected to conditions of oxidative and Golgi stress in the presence or absence of H2S treatment. […] Then, to determine whether the protective effect of H2S on Golgi stress is dependent on the presence of Prdx4, Golgi stress was induced in the presence or absence of H2S with control (siCtl) and Prdx4 knockdown (siPrdx4) T cells."}, "Pmel CD8+ T cells [1]": {"tested_on": "Pmel CD8+ T cells", "experiment": "Re-stimulation with gp100 and FACS cytokine analysis", "format": "cell-based, mouse", "conditions": "0.5 mM GYY4137 3 days, re-stimulated with gp100", "from_the_text": "The impact of H2S on T cell effector function was next determined. Pmel CD8+ T cells were activated and expanded with standard culture conditions or with the addition of the H2S donor and subsequently re-stimulated with gp100 cognate antigen (FIG. 14E). […] Given the importance of protein translation in maintaining a robust anti-tumor response and the repression of T cell translation that occurs in the TME (Riesenberg B. P., et al., 2022, bioRxiv, 2022.01.31.478547; Marchingo J. M., et al., 2022, Cell Mol Immunol., 19(3):303-315), it was determined if H2S influences protein translation."}, "Pmel CD8+ T cells [2]": {"tested_on": "Pmel CD8+ T cells", "conditions": "for Golgi stress (GM130 expression): TME exhaustion model", "from_the_text": "The solid tumor microenvironment is characterized as being highly immunosuppressive, leading to T cell exhaustion. Thus, an in vitro model of TME-induced T cell exhaustion using supernatants collected from B16-F10 murine melanoma cells along with chronic antigen stimulation was used.25 Pmel CD8+ T cells were activated and cultured under optimal culture conditions, with tumor supernatant plus repeated stimulation with gp100, or with tumor supernatant plus repeated stimulation with gp100 plus H2S donor (FIG. 12I). This model was used to determine the impact of T cell exhaustion on Cbs expression and H2S production by gating Pmel T cells on TIM3+PD1+ (terminally exhausted) and TIM3−PD1− cells.\nOnce the tumors reached a size of approximately 150 mm2, the mice were euthanized and the tumors were removed. The tumors were then processed into single cell suspension using a mouse tumor dissociation kit (Miltenyi, #130-096-730). […] After 5 days of culture without changing the media, the supernatant was removed from the wells and spun down to remove any tumor cells. 3-day activated Pmel T cells were then resuspended in the tumor supernatant along with 0.1 ug/mL of gp100 antigen. To promote chronic antigen stimulation, 0.1 μg/mL gp100 was added every day for 4 days. After 4 days of culture with tumor supernatant and chronic stimulation, the T cells were removed and analyzed for expression of exhaustion markers and functional assays."}, "Pmel CD8+ T cells [3]": {"tested_on": "Pmel CD8+ T cells", "experiment": "H2O2-induced oxidative stress and antioxidant capacity in Pmel T cells", "experimental": "(FIG. 20A) Cells treated for 12-hours with H2O2 (50 mM). FACS analysis quantifying 7-AAD+AnnexinV+ and 7−AAD−AnnexinV− populations (n=3). FIG. 20B, mRNA levels of GCLM and GCLC. (FIG. 20C) Measurements of surface thiols by AlexaFluor-488 C5 Maleimide (n=3) and intracellular glutathione by ThiolTracker Violet (n=4). […] (FIG. 20E) Fold increase in MFI for phosphorylated-PERK, phosphorylated-IRE1a, and ATF4 after 12-hr. incubation with 50 mM H2O2 (n=3). FIG. 20F, FACS quantification of cells expressing high phosphorylated-PERK levels after exhaustion assay (n=2). (FIG. 20G) Percentage of cells expressing high phosphorylated-PERK in Pmel cells overexpressing Cbs compared to Pmel cells transduced with control lentivirus (n=3). (FIG. 20H) Fold change in GM130 MFI in Pmel cells using exhaustion assay (n=3). (FIG. 20I) Cell viability and mitochondrial ROS following monensin treatment (1 mM). […] (FIG. 20K) GM130 MFI values in Pmel T cells overexpressing Cbs compared to control cells after transfer into tumor-bearing mice and TIL isolation after 7 days (n=4). (FIG. 20L) Pmel T cells cultured with B16-F10 supernatant and gp100, followed by FACS sorting for PD1+TIM3+ and PD1−TIM3− cells. Sorted cells stained with anti-Giantin antibody and analyzed for Golgi area via ImageStream. (FIG. 20M) FACS analysis of GM130 expression in PD1+TIM3+ and PD1−TIM3− populations. (FIG. 20N) Pmel cells treated with 1 mM monensin and analyzed for intracellular ROS (DCFDA). (FIG. 20O) FACS analysis of GM130 expression in Pmel cells treated with 50 mM H2O2 (6-hours). Data represent mean±SEM. Analyzed by two-sided Student's t-test or one-way ANOVA. ns, p-value >0.05; p-value *≤0.05; **≤0.01; ***≤0.001; ****≤0.0001."}, "Pmel CD8+ T cells [4]": {"tested_on": "Pmel CD8+ T cells", "conditions": "3 days gp100 and IL2 +/− 0.5 mM GYY4137", "experimental": "Next, the effect of H2S treatment on the transcriptomic profile of anti-tumor T cells was determined. Pmel CD8+ T cells were activated and expanded in the presence or absence of the H2S donor prior to RNA-sequencing.\nCells were immediately pelleted by centrifugation at 4° C. and resuspended in 1 mL Trizol. RNA concentration was measured using a NanoDrop 8000. RNA quality was assessed using an Agilent 4200 TapeStation and RINe values ranged from 9.7-10. […] Dual-indexed libraries were pooled to and sequenced at VANTAGE (Vanderbilt University Medical Center) on an Illumina NovaSeq 6000 (S4 flow cell) to a depth of approximately 25 million paired-end 150 bp reads per library. Reads were aligned to the mouse mm10 reference genome using STAR (v2.7.1a). Only uniquely mapped reads were retained for further analyses. Quality control metrics were assessed by Picard tool (http://broadinstitute.github.io/picard/). Gencode annotation for mm10 (version M25) was used as reference alignment annotation and downstream quantification. Gene level expression was calculated using featureCounts (v2.0.1). Counts were calculated based on protein-coding genes from the annotation file. Counts were normalized using counts per million reads (CPM). Genes with no reads in either Control or Treated samples were removed. […]"}, "human CD19 CAR-T cells": {"tested_on": "human CD19 CAR-T cells", "conditions": "3 days IL2 +/− 0.5 mM GYY4137", "experimental": "Quantification of oxygen consumption rate (OCR), spare respiratory capacity (SRC), maximal respiration, and basal respiration (n=10 experimental replicates representative of 3 separate experiments). […] Shown is the quantification of mean oxygen consumption rate (OCR), spare respiratory capacity (SRC), maximal respiration, and basal respiration. Data shown represent the mean±SEM and were analyzed by two-sided Student's t-test or one-way ANOVA. ns, p-value >0.05; p-value *≤0.05; **≤0.01; ***≤0.001; ****≤0.0001.\nOxygen consumption rate (OCR) and extracellular acidification rate (ECAR) were determined using the Seahorse Xfe96 analyzer (Agilent Technologies, Santa Clara, CA). Briefly, T cells (0.5×10^6/well) were plated on a Cell-Tak coated Seahorse culture plate for 30 min. OCR, a measure of OXPHOS, was analyzed under basal condition, or in response to 1.0 μM oligomycin, 1.0 μM fluoro-carbonyl cyanide phenylhydrazone (FCCP) and 2 μM rotenone, plus 100 nM antimycin A. ECAR, a measure of glycolysis, was measured under basal conditions and in response to glucose (5.5 mM), Oligomycin (1.0 μM), and 2-deoxyglucose (2-DG) (100 mM). All reagents were purchased from Sigma-Aldrich, St. Louis, MO."}, "Pmel CD8+ T cells [5]": {"tested_on": "Pmel CD8+ T cells", "conditions": "3 days gp100 and IL2 +/− 0.5 mM GYY4137", "description": "Different metabolites' intracellular levels were determined by performing comprehensive hydrophilic metabolites analysis using LC/MS platform (Metabolomics Core Facility, Northwestern University). Data were then analyzed using MetaboAnalyst software. Samples were loaded equivalently across the platform and normalized to Bradford values before statistical analysis.", "remark": "listed apart in the source"}, "[6]": {"conditions": "tumor supernatant + repeated gp100 +/− 0.5 mM GYY4137"}}, "note": "“Also recorded” adds a separate entry of the source. Like-named read-outs stand apart in the source and are kept apart here."}
{"smiles": "C1COCCN1.COc1ccc(P(=S)(S)N2CCOCC2)cc1", "note": "(centres unmarked) [GYY4137]", "values": [{"measurement": "GM130 expression under Golgi stress, control (siCtl) T cells", "setting": "Prdx4 knockdown T cells; 50 mM H2O2 +/− 0.5 mM GYY4137", "result": "prevented the decrease in GM130 expression"}, {"measurement": "GM130 expression under Golgi stress, Prdx4 knockdown (siPrdx4) T cells", "setting": "Prdx4 knockdown T cells; 50 mM H2O2 +/− 0.5 mM GYY4137, listed as H2S", "result": "protective effect was absent; also recorded: absent when Prdx4 was knocked down"}, {"measurement": "increase in protein translation, Prdx4 knockdown T cells", "setting": "Prdx4 knockdown T cells; +/− GYY4137", "result": "not observed"}, {"measurement": "Granzyme B and CD107 expression", "setting": "Pmel CD8+ T cells [1]", "result": "increased levels of cytolytic molecule Granzyme B and CD107 expression"}, {"measurement": "secretion of effector cytokines TNF-α and IFN-γ", "setting": "Pmel CD8+ T cells [1]", "result": "enhanced secretion of effector cytokines TNF-α, and IFN-γ"}, {"measurement": "Golgi stress (GM130 expression)", "setting": "Pmel CD8+ T cells [2]", "result": "reverted"}, {"measurement": "Golgi stress (GM130 expression)", "setting": "Pmel CD8+ T cells [2]; listed as H2S donor", "result": "decrease in GM130 expression was mitigated"}, {"measurement": "ER stress (high phosphorylated-PERK)", "setting": "Pmel CD8+ T cells [2]; in vitro TME exhaustion model", "result": "mitigated"}, {"measurement": "Tcm phenotype", "setting": "Pmel CD8+ T cells [2]; [6]", "result": "preserve the Tcm phenotype"}, {"measurement": "expression of exhaustion markers PD1, TIM3, Lag3, CD38", "setting": "Pmel CD8+ T cells [2]; [6]", "result": "decreased expression of T cell exhaustion markers PD1, TIM3, Lag3, and CD38"}, {"measurement": "apoptotic cell death (7-AAD, AnnexinV)", "setting": "Pmel CD8+ T cells [3]; 12-hours H2O2 (50 mM), +/− 0.5 mM GYY4137", "result": "significant decrease in apoptotic cell death"}, {"measurement": "expression of GCLC and GCLM (mRNA)", "setting": "Pmel CD8+ T cells [3]; +/− 0.5 mM GYY4137", "result": "increased expression"}, {"measurement": "intracellular glutathione (iGSH)", "setting": "Pmel CD8+ T cells [3]; ThiolTracker Violet", "result": "increase"}, {"measurement": "significantly upregulated pathways", "setting": "Pmel CD8+ T cells [4]", "result": "pathways related to immune receptor activity, T cell signaling, and cytokine activity"}, {"measurement": "transcriptomic profile (PCA)", "setting": "Pmel CD8+ T cells [4]", "result": "distinct transcriptomic profile"}, {"measurement": "SRC", "setting": "human CD19 CAR-T cells", "result": "significant increase"}, {"measurement": "maximal respiration", "setting": "human CD19 CAR-T cells", "result": "significant increase"}, {"measurement": "levels of NAD+", "setting": "Pmel CD8+ T cells [5]", "result": "increased levels of NAD+"}, {"measurement": "levels of nicotinamide", "setting": "Pmel CD8+ T cells [5]", "result": "decreased levels of nicotinamide"}, {"measurement": "metabolite profile", "setting": "Pmel CD8+ T cells [5]", "result": "distinct profile of metabolites"}]}
